Values of other authors, collected in US8153661B2, “Controlled delivery system” (Durect Corporation, priority 2004, dated 2012).

In the case of CCCCN1CCCCC1C(=O)Nc1c(C)cccc1C (stereo not shown) [bupivacaine], the “published estimated toxic plasma concentration ranges” value is listed as 1 to 4 µg/mL.
